Results as given in patent US9540620B2, “Methods and compositions for modulating G-alpha-Q signaling” (The University of North Carolina at Chapel Hill, priority 2012, dated 2017).
“Also recorded” adds a separate entry of the source. Ends that are not written are not given here. Peptide text beside a SMILES is read from it. * marks the point of attachment. X1 = CN(C)c1ccc2c(-c3ccc(C(=O)*)cc3C(=O)[O-])c3ccc(=[N+](C)C)cc-3oc2c1

Assays:
[1] = molecular target: T1, Gαq activated with aluminum fluoride (Homo sapiens, UniProt P50148); assay: Fluorescence polarization binding of TAMRA-labeled PLC-β3 HTH peptides to Gαq; conditions: Gαq-GDP without added aluminum fluoride
T1 sequence (P50148 1-359): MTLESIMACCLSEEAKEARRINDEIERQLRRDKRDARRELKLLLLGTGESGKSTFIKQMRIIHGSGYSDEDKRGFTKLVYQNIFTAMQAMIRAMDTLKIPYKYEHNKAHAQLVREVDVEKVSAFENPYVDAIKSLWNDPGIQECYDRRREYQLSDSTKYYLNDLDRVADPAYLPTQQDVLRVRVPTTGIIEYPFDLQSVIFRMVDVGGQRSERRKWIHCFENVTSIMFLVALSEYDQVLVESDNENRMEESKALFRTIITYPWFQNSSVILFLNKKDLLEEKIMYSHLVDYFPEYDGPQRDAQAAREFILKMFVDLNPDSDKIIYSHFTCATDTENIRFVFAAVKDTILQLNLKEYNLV
Protocol: (§1) FIGS. 6A-C. Quantification of Gαq binding to peptides corresponding to the HTH of PLβ3. […] The structures of PLCβ3 (3 OHM) and p63RhoGEF (2RGN) bound to Gαq were superimposed and a single Gαq is shown. Immediately below is shown the sequence alignment of PLCβ3 (SEQ ID NO:37) and p63RhoGEF (SEQ ID NO:41) encompassing the helix-turn-helix. Underlined residues are labeled in the structure. […] (FIG. 6C) Increasing concentrations of unlabeled PLC-β3 were added to a solution of labeled 25-mer (400 nM) and Gαq (4 μM). KD and IC50 values were derived from three independent experiments.

activated Gαs = activated Gαs (Homo sapiens, UniProt P63092); assay: Fluorescence polarization binding of TAMRA-labeled peptide to activated Gαs
activated GαI = assay: Fluorescence polarization binding of TAMRA-labeled peptide to activated Gαi
activated Gαo = activated Gαo (Homo sapiens, UniProt P09471); assay: Fluorescence polarization binding of TAMRA-labeled peptide to activated Gαo
[2] = tested on: G-alpha-q mediated activation of PLC-beta; assay: 5HT2A/DOI-stimulated [3H]inositol phosphate accumulation in transiently transfected HEK293 cells; type: cell-based; conditions: DOI 1-2 microMolar (FIG. 10)
Protocol: FIG. 10. […] HEK293 cells transfected with 100 ng of 5HT2A and stimulated with 1-2 microMolar of DOI (Synonym: (±)-DOI, (±)-1-(2,5-Dimethoxy-4-iodophenyl)-2-aminopropane hydrochloride, (±)-2,5-Dimethoxy-4-iodoamphetamine hydrochloride) were assayed for [^3H]inositol phosphate accumulation. The control for no DOI stimulation for the CFP-HTH-YFP sample is shown as dashed line (A) and triangle (B). Where indicated HEK293 cells were transfected with varying amounts of PLC constructs.
This experiment is a proof of principle to inhibit G-alpha-q with adeno-associated virus (AAV) to treat uveal melanoma patients. Future experiments will use a retrovirus containing the 27 residue helix-turn-helix in primary uveal melanoma cells to induce apoptosis and inhibit the progression of the uveal melanoma.
The 27mer construct used is between two fluorescent proteins YFP and CFP yielding: YFP-HTH(27mer)-CFP. The 27mer sequence is
A CaaX box was attached to the YFP-HTH(27mer)-CFP to keep this molecule at the membrane. The CaaX box sequence is at the very C-terminal end and are the residues CAIL (SEQ ID NO:36).

Gαq/i = assay: Fluorescence polarization assay in 384 well plates, competition with TAMRA-27-mer; type: binding; conditions: 30 μM, 200 nM TAMRA-27-mer, 1.5 μM Gαq/i
Protocol: FIG. 4. Fluorescence polarization assay in 384 well plates. Each well contains 200 nM TAMRA-27-mer and 1.5 μM Gαq/i. Z′-factor determined using 48 wells+/−aluminum fluoride (AlF4). Unlabeled 27-mer (30 μM) added to an additional 48 wells. Coefficient of variance range between 1 and 4 percent.
To begin to develop a high-throughput format suitable for screening large libraries of compounds, the original fluorescence polarization assay was formatted to use microtiter plates (FIG. 4). The initial reconfiguration to use 384-well plates is highly promising, providing a high dynamic range as defined by the difference in fluorescence polarization of the TAMRA-27-mer in the presence of Gαq-GDP either alone or activated with aluminum fluoride. The high dynamic range combined with low variance produced a Z′-factor of approximately 0.8. An assay with a Z′-factor above 0.5 is generally required for useful high-throughput screening^19; a Z′-factor above 0.8 is generally considered excellent. Moreover, the addition of 30 μM of unlabeled 27-mer competed with the TAMRA-27-mer for binding to Gαq leading to an approximately 50 percent decrease in fluorescence polarization.

Gαq = molecular target: T2, Gαq (Homo sapiens, UniProt P50148); assay: Fluorescence polarization competition: unlabeled PLC-β3 against TAMRA-labeled peptide for Gαq; type: binding
T2 sequence (P50148 1-359): T1 sequence (P50148 1-359)
Protocol: FIGS. 3A and 3B. TAMRA-27-mer and PLC-β3 directly compete for Gαq. (FIG. 3A) Increasing concentrations of PLC-β3 were added to a solution of TAMRA-27-mer (400 nM) and Gαq (800 nM). The IC50 value is derived from three independent experiments. (FIG. 3B) Phospholipase activity of PLC-β3 activated by Gαq using lipid vesicles and inhibited by increasing concentrations of TAMRA-27-mer.
as §1
Fluorescence polarization will be used to monitor disruption of complex formation between the 27-mer and active Gαq to identify compounds that directly compete with the complex. It is expected that the majority of these compounds will sit within the canonical effector-binding site of Gαq to prevent the binding of peptide—and by extension, prevent the binding of effectors. However, before using this assay format to identify inhibitors of complex formation it was necessary to insure that peptides corresponding to the HTH of PLC-β3 bound to Gαq. […] These experiments strongly support that peptides corresponding to the HTH of PLC-β3 directly bind to the effector pocket of Gαq and can be used as surrogates of effectors in assays of complex formation with active Gαq.
The most promising peptide consisted of 25 residues (TAMRA-25-mer) spanning the entire HTH and bound to G-alpha-q with appreciable affinity (Kd˜6 microMolar).

activated Gαo, sequence (P09471 whole entry): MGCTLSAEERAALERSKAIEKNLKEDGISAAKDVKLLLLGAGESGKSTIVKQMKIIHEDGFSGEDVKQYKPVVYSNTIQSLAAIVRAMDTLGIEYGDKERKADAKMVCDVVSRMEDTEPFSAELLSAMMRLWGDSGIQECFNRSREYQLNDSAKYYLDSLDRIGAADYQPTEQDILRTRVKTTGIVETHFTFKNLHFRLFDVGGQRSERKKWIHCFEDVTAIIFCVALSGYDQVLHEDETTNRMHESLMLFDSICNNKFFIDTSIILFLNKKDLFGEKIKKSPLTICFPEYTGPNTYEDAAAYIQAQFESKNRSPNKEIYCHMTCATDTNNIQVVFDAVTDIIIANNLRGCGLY
activated Gαs, sequence (P63092 whole entry): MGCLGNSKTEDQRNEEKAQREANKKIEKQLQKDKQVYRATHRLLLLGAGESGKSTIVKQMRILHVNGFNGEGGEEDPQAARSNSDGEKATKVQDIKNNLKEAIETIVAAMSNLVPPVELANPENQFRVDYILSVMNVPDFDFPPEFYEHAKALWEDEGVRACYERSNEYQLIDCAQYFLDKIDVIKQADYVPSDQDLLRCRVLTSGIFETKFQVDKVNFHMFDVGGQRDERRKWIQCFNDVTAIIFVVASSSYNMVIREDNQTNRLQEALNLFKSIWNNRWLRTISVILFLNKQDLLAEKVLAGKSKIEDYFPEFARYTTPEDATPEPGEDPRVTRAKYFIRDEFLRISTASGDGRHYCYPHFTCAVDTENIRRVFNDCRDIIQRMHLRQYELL

`CC[C@H](C)[C@H](NC(=O)[C@H](CC(C)C)NC(=O)[C@H](C)NC(=O)[C@H](CCC(=O)O)NC(=O)[C@H](C)NC(=O)[C@H](Cc1ccc(O)cc1)NC(=O)[C@H](CC(=O)O)NC(=O)[C@H](CCC(N)=O)NC(=O)[C@H](Cc1c[nH]cn1)NC(=O)c1ccc(-c2c3ccc(=[N+](C)C)cc-3oc3cc(N(C)C)ccc23)c(C(=O)[O-])c1)C(=O)N[C@@H](CC(N)=O)C(=O)N1CCC[C@H]1C(=O)N[C@H](C(=O)N[C@@H](CCCCN)C(=O)N[C@@H](Cc1c[nH]cn1)C(=O)N[C@H](C(=O)N[C@@H](CO)C(=O)N[C@@H](CC(C)C)C(=O)N[C@@H](CCSC)C(=O)N[C@@H](CC(=O)O)C(=O)N[C@@H](CCC(N)=O)C(=O)N[C@@H](CCCNC(=N)N)C(=O)N[C@@H](C)C(=O)N[C@@H](CCCNC(=N)N)C(=O)N[C@@H](CCC(N)=O)C(=O)N[C@@H](CC(C)C)C(=O)O)C(C)C)[C@@H](C)CC` [TAMRA-25-mer] (X1-HQDYAEALINPIKHVSLMDQRARQL-OH; C-terminus assumed) was tested, and the “complex formation with inactive Gαq-GDP / dependence on aluminum fluoride activation” value [1] was “dependent on the activation of G-alpha-q with aluminum fluoride; also recorded: dependent on the activation of Gαq with aluminum fluoride”, the “binding to activated Gαs” value (activated Gαs) was “failed to bind; also recorded: neither activated Gαs, GαI, nor Gαo bound the peptide” and the “binding to activated Gαi” value (activated GαI) was “failed to bind; also recorded: neither activated Gαs, GαI, nor Gαo bound the peptide”. For the same molecule, the “binding to activated Gαo” value (activated Gαo) was “failed to bind; also recorded: neither activated Gαs, GαI, nor Gαo bound the peptide”.

For “CFP-27mer(I860A)-YFP: 27mer HQDYAEALANPIKHVSLMDQRARQLAA between fluorescent proteins YFP and CFP, C-terminal CaaX box CAIL, expressed by transient transfection (HQDYAEALANPIKHVSLMDQRARQLAACAIL; also: fused between fluorescent proteins YFP and CFP)”, the “inhibition of G-alpha-q signaling after transient transfection” value [2] was “inhibits G-alpha-q mediated activation of PLC-beta” and the “inhibition of G-alpha-q signaling after transient transfection” value ([2]; listed as 27 residue helix-turn-helix peptide) was “inhibited G-alpha-q signaling”.

In the case of “HQDYAEALANPIKHVSL-Nle-DQRARQLAA [unlabeled 27-mer]”, the “decrease in fluorescence polarization” value (Gαq/i) is reported as “approximately 50%”.

B1: PLC-β3(L859E): mutant full-length PLC-β3 with single substitution L859E in its HTH that does not bind Gαq (protein)
chain: AGAQPGVHALQLEPPTVVETLRRGSKFIKWDEETSSRNLVTLRVDPNGFFLYWTGPNMEVDTLDISSIRDTRTGRYARLPKDPKIREVLGFGGPDARLEEKLMTVVSGPDPVNTVFLNFMAVQDDTAKVWSEELFKLAMNILAQNASRNTFLRKAYTKLKLQVNQDGRIPVKNILKMFSADKKRVETALESCGLKFNRSESIRPDEFSLEIFERFLNKLCLRPDIDKILLEIGAKGKPYLTLEQLMDFINQKQRDPRLNEVLYPPLRPSQARLLIEKYEPNQQFLERDQMSMEGFSRYLGGEENGILPLEALDLSTDMTQPLSAYFINSSHNTYLTAGQLAGTSSVEMYRQALLWGCRCVELDVWKGRPPEEEPFITHGFTMTTEVPLRDVLEAIAETAFKTSPYPVILSFENHVDSAKQQAKMAEYCRSIFGDALLIEPLDKYPLAPGVPLPSPQDLMGRILVKNKKRHRPSAGGPDSAGRKRPLEQSNSALSESSAATEPSSPQLGSPSSDSCPGLSNGEEVGLEKPSLEPQKSLGDEGLNRGPYVLGPADREDEEEDEEEEEQTDPKKPTTDEGTASSEVNATEEMSTLVNYIEPVKFKSFEAARKRNKCFEMSSFVETKAMEQLTKSPMEFVEYNKQQLSRIYPKGTRVDSSNYMPQLFWNVGCQLVALNFQTLDVAMQLNAGVFEYNGRSGYLLKPEFMRRPDKSFDPFTEVIVDGIVANALRVKVISGQFLSDRKVGIYVEVDMFGLPVDTRRKYRTRTSQGNSFNPVWDEEPFDFPKVVLPTLASLRIAAFEEGGKFVGHRILPVSAIRSGYHYVCLRNEANQPLCLPALLIYTEASDYIPDDHQDYAEAEINPIKHVSLMDQRARQLAALIGESEAQAGQETCQDTQSQQLGSQPSSNPTPSPLDASPRRPPGPTTSPASTSLSSPGQRDDLIASILSEVAPTPLDELRGHKALVKLRSRQERDLRELRKKHQRKAVTLTRRLLDGLAQAQAEGRCRLRPGALGGAADVEDTKEGEDEAKRYQEFQNRQVQSLLELREAQVDAEAQRRLEHLRQALQRLREVVLDANTTQFKRLKEMNEREKKELQKILDRKRHNSISEAKMRDKHKKEAELTEINRRHITESVNSIRRLEEAQKQRHDRLVAGQQQVLQQLAEEEPKLLAQLAQECQEQRARLPQEIRRSLLGEMPEGLGDGPLVACASNGHAPGSSGHLSGADSESQEENTQL
In the case of B1, the “competition with the 27-mer for binding to Gαq” value (Gαq; TAMRA-27-mer 400 nM, Gαq 800 nM) is reported as “could not compete” and the “effect on TAMRA-25-mer binding to Gαq” value (Gαq; at concentrations as high as 35 μM) is reported as “no effect”.
